Assay results: paper PMC3566764, “Thioester derivatives of the natural product psammaplin A as potent histone deacetylase inhibitors” (Beilstein Journal of Organic Chemistry, 2013)
Where two headings read alike, the source gives them in different places.

Assays:
[1] = system: A549 (human lung carcinoma); test: Cytotoxicity against A549 cell line; assay type: cell-based; conditions: for IC50: Homo sapiens, A549 cells
Description: (§1) Thioesters 7–9 were assayed against A549, MCF7 and WI38 cell lines, in addition to recombinant human rHDAC1 (class I) and recombinant human HDAC6 (rHDAC6, class II) as previously reported. Psammaplin A (3), prereduced psammaplin A thiol (4), and SAHA (1) were included as control compounds. IC50^6/1 is defined by the ratio IC50^HDAC6/IC50^HDAC1 and was used as an indicator of isoform selectivity in vitro.

[2] = system: MCF7 (human breast carcinoma); test: Cytotoxicity against MCF7 cell line; assay type: cell-based; conditions: MCF7 cells
Description: as §1

[3] = system: WI38 (normal human lung fibroblast); test: Cytotoxicity against WI38 cell line; assay type: cell-based; conditions: for IC50: Homo sapiens, WI-38, WI38 cells
Description: as §1

rHDAC1 [4] = target: T1, rHDAC1 (Homo sapiens, UniProt Q13547); test: rHDAC1 inhibition, coupled Boc-Lys(Ac)-AMC/trypsin fluorescence assay; assay type: biochemical; conditions: for IC50^6/1 (ratio IC50 HDAC6/IC50 HDAC1): isoform selectivity in vitro; for IC50: purified recombinant human HDAC1
T1 construct: purchased BPS Bioscience (US)
T1 sequence (Q13547 whole entry, canonical isoform): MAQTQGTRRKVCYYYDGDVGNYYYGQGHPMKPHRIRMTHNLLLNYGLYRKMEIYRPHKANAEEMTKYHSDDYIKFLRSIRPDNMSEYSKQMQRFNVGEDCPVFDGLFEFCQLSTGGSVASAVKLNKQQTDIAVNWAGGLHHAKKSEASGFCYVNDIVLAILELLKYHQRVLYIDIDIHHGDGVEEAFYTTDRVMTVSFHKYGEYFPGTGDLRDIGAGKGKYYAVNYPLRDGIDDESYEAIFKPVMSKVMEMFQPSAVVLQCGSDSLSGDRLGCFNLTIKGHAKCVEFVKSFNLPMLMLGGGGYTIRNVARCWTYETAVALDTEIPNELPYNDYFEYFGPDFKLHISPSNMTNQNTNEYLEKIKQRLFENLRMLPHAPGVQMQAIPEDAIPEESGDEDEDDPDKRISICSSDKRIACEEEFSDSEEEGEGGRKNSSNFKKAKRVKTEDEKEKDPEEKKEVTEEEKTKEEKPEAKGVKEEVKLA
Description: (§2) HDAC assays were performed as previously reported. The recombinant human histone deacetylases rHDAC1 and rHDAC6 were obtained from BPS Bioscience (US).
(§3) All reactions were performed in black half area 96-well microplates (Greiner bio-one, Germany) according to the general procedure described by Wegener et al. with some minor modifications. […] The buffer components were purchased from Merck (Germany), Roth (Germany) and Sigma-Aldrich.
(§4) The enzyme reaction was initiated by the addition of Boc-Lys(Ac)-AMC substrate. The reaction mixture was incubated at 30 °C in the dark and stopped after 60 min by the addition of a mixture of 70 µM trypsin and 200 nM SAHA. The fluorescence of AMC served as an indirect measure of HDAC enzyme activity. The kinetics of AMC release was measured on a PolarStar fluorescence plate reader (BMG) with an excitation wavelength of 340 nm and an emission wavelength of 460 nm. Complete cleavage of deacetylated Boc-Lys-AMC by trypsin was achieved after about 10–15 min. The fluorescence intensity of the plateau was averaged over at least 5 min and normalized with respect to the percentage of enzyme activity. Finally, the normalized fluorescence intensities were plotted versus the concentration of test compounds and fitted to a four-parameter logistic model to calculate the IC50 values.

[5] = target: T2, recombinant human HDAC6 (rHDAC6) (Homo sapiens, UniProt Q9UBN7); test: rHDAC6 inhibition, coupled Boc-Lys(Ac)-AMC/trypsin fluorescence assay; assay type: biochemical; conditions: purified recombinant human HDAC6
T2 construct: purchased BPS Bioscience (US)
T2 sequence (Q9UBN7 1-1215): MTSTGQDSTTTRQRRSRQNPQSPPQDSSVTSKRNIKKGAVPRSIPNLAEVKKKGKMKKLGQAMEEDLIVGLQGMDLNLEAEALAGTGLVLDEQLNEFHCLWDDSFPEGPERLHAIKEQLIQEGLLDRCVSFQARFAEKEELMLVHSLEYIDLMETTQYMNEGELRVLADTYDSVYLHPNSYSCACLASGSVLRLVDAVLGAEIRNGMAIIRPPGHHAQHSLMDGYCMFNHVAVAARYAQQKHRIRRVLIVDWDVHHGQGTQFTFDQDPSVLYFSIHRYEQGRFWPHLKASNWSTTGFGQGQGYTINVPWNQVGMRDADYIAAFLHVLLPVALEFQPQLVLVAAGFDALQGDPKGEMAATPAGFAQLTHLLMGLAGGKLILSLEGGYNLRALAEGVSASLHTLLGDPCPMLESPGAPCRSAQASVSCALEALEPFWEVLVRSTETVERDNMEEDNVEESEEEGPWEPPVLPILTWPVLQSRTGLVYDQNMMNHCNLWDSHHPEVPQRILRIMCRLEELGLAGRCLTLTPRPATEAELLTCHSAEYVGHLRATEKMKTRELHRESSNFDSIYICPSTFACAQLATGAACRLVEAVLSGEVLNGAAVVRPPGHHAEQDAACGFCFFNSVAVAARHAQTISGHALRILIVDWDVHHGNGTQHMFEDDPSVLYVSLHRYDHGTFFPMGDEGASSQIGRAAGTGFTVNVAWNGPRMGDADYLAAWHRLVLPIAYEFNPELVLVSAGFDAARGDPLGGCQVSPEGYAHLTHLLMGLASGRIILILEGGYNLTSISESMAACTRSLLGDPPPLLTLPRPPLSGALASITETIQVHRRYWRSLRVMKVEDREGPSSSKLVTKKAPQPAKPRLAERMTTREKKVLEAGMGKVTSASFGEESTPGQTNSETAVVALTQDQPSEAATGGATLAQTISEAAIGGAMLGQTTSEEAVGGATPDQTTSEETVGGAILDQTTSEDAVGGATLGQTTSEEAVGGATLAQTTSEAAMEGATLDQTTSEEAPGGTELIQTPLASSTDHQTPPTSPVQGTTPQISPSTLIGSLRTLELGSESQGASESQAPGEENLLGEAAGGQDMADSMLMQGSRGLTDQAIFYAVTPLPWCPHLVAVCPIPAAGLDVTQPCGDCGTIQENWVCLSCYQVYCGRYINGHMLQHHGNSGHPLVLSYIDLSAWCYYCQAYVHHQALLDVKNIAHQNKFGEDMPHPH
Description: as §2, §3, §4

rHDAC1 [6] = target: T1, rHDAC1; test: rHDAC1 inhibition as a function of initial incubation time; assay type: biochemical; conditions: thioester at IC50 concentration, incubation 1–60 minutes
Description: An alternative hypothesis for the high potency of the thioester inhibitors is that the HDAC enzyme cleaves the acetyl group directly, utilizing its intrinsic deacetylase activity. Inhibition of rHDAC1 was measured (at the IC50 concentration of thioester) as a function of the initial incubation time (1–60 minutes) of rHDAC1 with thioesters 7 and 9 (Figure 2). […] Finally, we assessed whether the use of thioester inhibitors could influence the assay readout, when using our coupled HDAC assay. Trypsin-dependant generation of the fluorescence intensity (2nd step of our coupled assay) was discounted as a source of false-positive activity, since trypsin was used in a large excess (430 μM) compared to the thioesters (low micromolar to nanomolar). Direct compound inhibition of trypsin would therefore not be significant in the overall readout on stoichiometry grounds.
Figure 2 rHDAC1 was incubated with a predetermined IC50 concentration of 7 (left) and 9 (right) for 1–60 minutes, and the remaining rHDAC1 activity (Y-axis, %) was recorded and plotted as a function of the incubation time (X-axis, minutes).
A serial dilution of test compounds was pre-incubated with 7.4 nM rHDAC1 or 2.8 nM rHDAC6, at 21 ± 1 °C in the dark for different periods of time as indicated. […] The fluorescence of AMC served as an indirect measure of HDAC enzyme activity. […]

[7] = system: A549 (human lung carcinoma); parameters: method as in PMID 22280363; conditions: in brackets, cited from earlier work
[8] = system: MCF7 (human breast carcinoma); parameters: method as in PMID 22280363; conditions: in brackets, cited from earlier work
[9] = system: WI38 (normal human lung fibroblast); parameters: method as in PMID 22280363; conditions: in brackets, cited from earlier work
rHDAC1 [10] = target: T1, rHDAC1; parameters: method as in PMID 22280363; conditions: in brackets, cited from earlier work
[11] = target: T2, recombinant human HDAC6 (rHDAC6); parameters: method as in PMID 22280363; conditions: in brackets, cited from earlier work
[12] = first value: corresponding disulfide
[13] = second value: corresponding thiol

## COc1ccc(CC(=O)C(=O)NCCSC(C)=O)cc1Br [Compound 9, (S)-2-(3-(3-Bromo-4-methoxyphenyl)-2-oxopropanamido)ethyl ethanethioate]
[1]; 50 μM
  activity against A549 cells at the highest concentration tested: inactive
[1]
  IC50: > 50 µM
[2]
  IC50: 21 µM
[3]; 50 μM
  activity against WI38 cells at the highest concentration tested: inactive
[3]
  IC50: > 50 µM
rHDAC1 [4]
  IC50^6/1 (ratio IC50 HDAC6/IC50 HDAC1): > 20
  IC50: 0.48 µM
[5]
  IC50: 9.5 µM
rHDAC1 [6]
  variation of rHDAC1 inhibition with initial incubation time: No variation of enzymatic inhibition

## O=C(CCCCCCC(=O)Nc1ccccc1)NO [SAHA (1), suberoylanilide hydroxamic acid]
rHDAC1 [4]
  IC50^6/1 (ratio IC50 HDAC6/IC50 HDAC1): 7

## CO/N=C(\Cc1ccc(OC)c(Br)c1)C(=O)NCCSC(C)=O [Compound 7, (E)-(S)-2-(3-(3-Bromo-4-methoxyphenyl)-2-(methoxyimino)propanamido)ethyl ethanethioate]
[1]
  IC50: 44 µM
[2]
  IC50: 12 µM
[3]
  IC50: 17 µM
rHDAC1 [4]
  IC50^6/1 (ratio IC50 HDAC6/IC50 HDAC1): > 417
  IC50: 0.12 µM
rHDAC1 [4]; thioester vs free thiol
  times less potent than the corresponding free thiol analogue against rHDAC1: 8 times
[5]
  IC50: > 50 µM
rHDAC1 [6]
  variation of rHDAC1 inhibition with initial incubation time: No variation of enzymatic inhibition

## O=C(NCCSSCCNC(=O)/C(Cc1ccc(O)c(Br)c1)=N/O)/C(Cc1ccc(O)c(Br)c1)=N/O [PSA (3), psammaplin A]
[1]
  IC50: 7.5 µM
[2]
  IC50: 1.3 µM
[3]
  IC50: 3.4 µM
rHDAC1 [4]
  IC50^6/1 (ratio IC50 HDAC6/IC50 HDAC1): 62
  IC50: 0.045 µM
[5]
  IC50: 2.8 µM

## O=C(NCCS)/C(Cc1ccc(O)c(Br)c1)=N/O [PSA-SH (4)]
[1]
  IC50: 2.5 µM
[2]
  IC50: 2.4 µM
[3]
  IC50: 3.4 µM
rHDAC1 [4]
  IC50^6/1 (ratio IC50 HDAC6/IC50 HDAC1): 360
  IC50: 0.001 µM
[5]
  IC50: 0.36 µM

## COc1ccc(CC(=O)C(=O)NCCSSCCNC(=O)C(=O)Cc2ccc(OC)c(Br)c2)cc1Br [disulfide of 9]
[7]; [12]
  IC50: 10 µM
[8]; [12]
  IC50: 3.9 µM
[9]; [12]
  IC50: 4.1 µM
rHDAC1 [10]; [12]
  IC50: 9 µM
  IC50^6/1 (ratio IC50 HDAC6/IC50 HDAC1): 0.9
[11]; [12]
  IC50: 8 µM

## CON=C(Cc1ccc(OC)c(Br)c1)C(=O)NCCSSCCNC(=O)C(Cc1ccc(OC)c(Br)c1)=NOC [disulfide of 7]
[7]; [12]
  IC50: 46 µM
[8]; [12]
  IC50: 13 µM
rHDAC1 [10]; [12]
  IC50: 0.22 µM
  IC50^6/1 (ratio IC50 HDAC6/IC50 HDAC1): > 230
[11]; [12]
  IC50: > 50 µM

## COc1ccc(CC(=NO)C(=O)NCCSSCCNC(=O)C(Cc2ccc(OC)c(Br)c2)=NO)cc1Br [disulfide of 8]
[7]; [12]
  IC50: 4.1 µM
[8]; [12]
  IC50: 0.63 µM
[9]; [12]
  IC50: 2.2 µM
rHDAC1 [10]; [12]
  IC50: 0.043 µM
  IC50^6/1 (ratio IC50 HDAC6/IC50 HDAC1): 46
[11]; [12]
  IC50: 2 µM

## COc1ccc(CC(=O)C(=O)NCCS)cc1Br [thiol of 9]
[7]; [13]
  IC50: 11 µM
[8]; [13]
  IC50: 3.4 µM
[9]; [13]
  IC50: 14 µM
rHDAC1 [10]; [13]
  IC50: 1.1 µM
  IC50^6/1 (ratio IC50 HDAC6/IC50 HDAC1): 0.22
[11]; [13]
  IC50: 0.25 µM

## CON=C(Cc1ccc(OC)c(Br)c1)C(=O)NCCS [thiol of 7]
[7]; [13]
  IC50: 5.1 µM
[8]; [13]
  IC50: 12 µM
[9]; [13]
  IC50: 10 µM
rHDAC1 [10]; [13]
  IC50: 0.015 µM
  IC50^6/1 (ratio IC50 HDAC6/IC50 HDAC1): 180
[11]; [13]
  IC50: 2.7 µM

## COc1ccc(CC(=NO)C(=O)NCCS)cc1Br [thiol of 8]
[7]; [13]
  IC50: 0.16 µM
[8]; [13]
  IC50: 0.61 µM
[9]; [13]
  IC50: 1.1 µM
rHDAC1 [10]; [13]
  IC50: 0.002 µM
  IC50^6/1 (ratio IC50 HDAC6/IC50 HDAC1): 1772
[11]; [13]
  IC50: 3.2 µM
